Among the data in ChEMBL document CHEMBL3286334, “Identification of tetrapeptides from a mixture based positional scanning library that can restore nM full agonist function of the L106P, I69T, I102S, A219V, C271Y, and C271R human melanocortin-4 polymorphic receptors (hMC4Rs)” (J Med Chem, 2014) are EC50 and Activity values, retold here.

Holding throughout (format): functional, cell-based
The target of experiment [1] is T1, Melanocortin receptor 4 (Homo sapiens, UniProt P32245). Kind of experiment: Agonist activity at wild type human melanocortin-4 receptor expressed in HEK293 cells co-transfected with CRE/beta-galactosidase reporter gene assessed as stimulatory response after 6 hrs.
Experiment [2] has as its target Melanocortin receptor 4 (Homo sapiens, UniProt P32245, L106P). Kind of experiment: Agonist activity at human melanocortin-4 receptor L106P mutant expressed in HEK293 cells co-transfected with CRE/beta-galactosidase reporter gene assessed as stimulatory response after 6 hrs.
Experiment [3] has as its target Melanocortin receptor 4 (Homo sapiens, UniProt P32245, I69T). Briefly: Agonist activity at human melanocortin-4 receptor I69T mutant expressed in HEK293 cells co-transfected with CRE/beta-galactosidase reporter gene assessed as stimulatory response after 6 hrs. A general note: In a reporter assay the amount or activity of a reporter protein is the signal.
Experiment [4] deals with Melanocortin receptor 4 (Homo sapiens, UniProt P32245, I102S). Briefly: Agonist activity at human melanocortin-4 receptor I102S mutant expressed in HEK293 cells co-transfected with CRE/beta-galactosidase reporter gene assessed as stimulatory response after 6 hrs.
Experiment [5] concerns the target Melanocortin receptor 4 (Homo sapiens, UniProt P32245, A219V). Kind of experiment: Agonist activity at human melanocortin-4 receptor A219V mutant expressed in HEK293 cells co-transfected with CRE/beta-galactosidase reporter gene assessed as stimulatory response after 6 hrs.
Experiment [6] concerns the target Melanocortin receptor 4 (Homo sapiens, UniProt P32245, C271Y). Kind of experiment: Agonist activity at human melanocortin-4 receptor C271Y mutant expressed in HEK293 cells co-transfected with CRE/beta-galactosidase reporter gene assessed as stimulatory response after 6 hrs.
Experiment [7] has as its target Melanocortin receptor 4 (Homo sapiens, UniProt P32245, C271R). Briefly: Agonist activity at human melanocortin-4 receptor C271R mutant expressed in HEK293 cells co-transfected with CRE/beta-galactosidase reporter gene assessed as stimulatory response after 6 hrs.
Experiment [8] has as its target Melanocyte-stimulating hormone receptor (Mus musculus, UniProt Q01727). Kind of experiment: Agonist activity at mouse melanocortin-1 receptor expressed in HEK293 cells co-transfected with CRE/beta-galactosidase reporter gene assessed as stimulatory response after 6 hrs.
Experiment [9] concerns the target Melanocortin receptor 4 (Mus musculus, UniProt P56450). Kind of experiment: Agonist activity at mouse melanocortin-4 receptor expressed in HEK293 cells co-transfected with CRE/beta-galactosidase reporter gene assessed as stimulatory response after 6 hrs.
Experiment [10] has as its target Melanocortin receptor 5 (Mus musculus, UniProt P41149). Briefly: Agonist activity at mouse melanocortin-5 receptor expressed in HEK293 cells co-transfected with CRE/beta-galactosidase reporter gene assessed as stimulatory response after 6 hrs.
Experiment [11] relates to Melanocortin receptor 4 (Homo sapiens), P32245 [L106P]. Kind of experiment: Agonist activity at human melanocortin-4 receptor L106P mutant expressed in HEK293 cells co-transfected with CRE/beta-galactosidase reporter gene assessed as stimulatory response at 10 uM after 6 hrs.
Experiment [12] deals with T1, Melanocortin receptor 4. Briefly: Agonist activity at wild type human melanocortin-4 receptor expressed in HEK293 cells co-transfected with CRE/beta-galactosidase reporter gene assessed as stimulatory response at 100 uM after 6 hrs.
Experiment [13] deals with Melanocortin receptor 4 (Homo sapiens), P32245 [L106P]. Kind of experiment: Agonist activity at human melanocortin-4 receptor L106P mutant expressed in HEK293 cells co-transfected with CRE/beta-galactosidase reporter gene assessed as stimulatory response at 100 uM after 6 hrs.

Usually EC50 stands for the concentration at which the effect is half-maximal. For `CC(=O)N[C@@H](CCCNC(=N)N)C(=O)N[C@H](Cc1ccc(Cl)cc1)C(=O)N1Cc2ccccc2C[C@H]1C(=O)N[C@H](Cc1ccc([N+](=O)[O-])cc1)C(N)=O`, the EC50 was determined as 0.21 nM in experiment [1]; 3.4 nM in experiment [2]; 5.2 nM in [3]; 4.4 nM in experiment [4]; 4.2 nM in experiment [5]; 470 nM in experiment [6]. Also, the EC50 stood at 3390 nM in [7], 22 nM in experiment [8], 7.6 nM in experiment [9] and 1 nM in [10].
As for `CC(=O)N1Cc2ccccc2CC1C(=O)N[C@H](Cc1ccc(I)cc1)C(=O)N1Cc2ccccc2CC1C(=O)N[C@@H](Cc1ccc(I)cc1)C(N)=O` (some centres not stated), in experiment [11], the Activity turned out to be 70%.
In the case of `CC(=O)N[C@@H](CCCNC(=N)N)C(=O)N[C@H](Cc1ccc(I)cc1)C(=O)N1Cc2ccccc2C[C@H]1C(=O)N[C@H](Cc1ccc([N+](=O)[O-])cc1)C(N)=O`, the EC50 in experiment [1] worked out at 0.26 nM; in experiment [2], 2.6 nM; in [3], 4.1 nM; in experiment [4], 2.9 nM; in experiment [5], 6.1 nM; in [6], 19700 nM. The EC50 in experiment [8] was determined as 2.7 nM; in experiment [9] it was 2.7 nM; in experiment [10], 1.1 nM.
In the case of `CC(=O)N[C@@H](Cc1c[nH]cn1)C(=O)N[C@H](Cc1ccc(I)cc1)C(=O)N1Cc2ccccc2C[C@H]1C(=O)N[C@H](Cc1ccc([N+](=O)[O-])cc1)C(N)=O`, the half-maximal effective concentration (EC50) in experiment [1] is 0.24 nM; in experiment [2], 10 nM; in [3], 3.8 nM; in [4], 14 nM; in experiment [5] it was 4.5 nM; in experiment [6], 190 nM. The EC50 in experiment [7] worked out at 295 nM; in [8], 2.9 nM; in experiment [9] it was 2.4 nM; in [10], 0.84 nM.
For `CC(=O)N1Cc2ccccc2CC1C(=O)N[C@H](Cc1ccc(I)cc1)C(=O)N1Cc2ccccc2CC1C(=O)N1Cc2ccccc2CC1C(N)=O` (some centres not stated), the Activity in [12] and in experiment [13] was 50% in each case.
For `CC(=O)N[C@@H](Cc1c[nH]cn1)C(=O)N[C@H](Cc1ccc(Cl)cc1)C(=O)N1Cc2ccccc2C[C@H]1C(=O)N[C@H](Cc1ccc([N+](=O)[O-])cc1)C(N)=O`, the EC50 in [1] is 0.4 nM; in experiment [2] it was 15 nM; in experiment [3] it was 4.3 nM; in experiment [4], 3 nM; in experiment [5], 2.8 nM; in [6] it was 82 nM. The EC50 came out at 130 nM in experiment [7], 4 nM in experiment [8], 5.2 nM in [9] and 0.63 nM in [10].
